Data on 31 compounds can be found in ChEMBL document CHEMBL4396933, “Design, synthesis and biological evaluation of 3,5-dimethylisoxazole and pyridone derivatives as BRD4 inhibitors” (Bioorg Med Chem Lett, 2019).

The structures appear in SMILES notation. Bounds are passed on as bounds.

Data set [1] concerns the target T1, Bromodomain-containing protein 4 (Homo sapiens, UniProt O60885). The data set is described as follows: Inhibition of BRD4 (unknown origin) at 1 uM relative to control.
The test system of data set [2] is MV4-11. The data set is described as follows: Antiproliferative activity against human MV4-11 cells assessed as reduction in cell viability incubated for 72 hrs by CellTiter-Glo luminescent cell viability assay. Type of data set: functional, cell-based. The following applies: MV4-11, 72 h.
The test system of a further data set is HCT-116. The data set is described as follows: Antiproliferative activity against human HCT116 cells. Format: functional, cell-based.
The next data set deals with CAPAN-1. The experiment in a line: Antiproliferative activity against human Capan1 cells. Type of data set: functional, cell-based.
Another data set concerns DU-145. The data set is described as follows: Antiproliferative activity against human DU145 cells. Type of data set: functional, cell-based.
The test system of another data set is SW480. The data set is described as follows: Antiproliferative activity against human SW480 cells. Type of data set: functional, cell-based.
The next data set concerns BT-474. The data set is described as follows: Antiproliferative activity against human BT474 cells. Format: functional, cell-based.
Data set [3] addresses T1, Bromodomain-containing protein 4. The experiment in a line: Inhibition of BRD4 bromodomain 1/2 (unknown origin) by alphascreen assay.
Data set [4] shares this target. The data set is described as follows: Inhibition of BRD4 in human MV4-11 cells assessed as downregulation of c-Myc protein expression incubated for 48 hrs by Western blot method. Format: cell-based.
In data set [5] the test system is MV4-11. The experiment in a line: Induction of cell cycle arrest in human MV4-11 cells assessed as increase in accumulation at G0/G1 phase incubated for 48 hrs by PI staining based flow cytometric analysis. Format: functional.
The subject of another data set is L02. The experiment in a line: Cytotoxicity against human LO2 cells at 0.5 to 40 uM incubated for 72 hrs by MTT assay. Type of data set: cell-based. The following applies: l02, 72 h.

In [1], `COc1cc2cnn(Cc3ccc(F)cc3)c2cc1-c1c(C)noc1C` returned an inhibition of 45%. The IC50 in the data set with MV4-11 [2] was found to be 1.9 µM.

Turning to `CNc1cc(-c2ccc3cnn(Cc4ccc(F)c([N+](=O)[O-])c4)c3c2)cn(C)c1=O`, the IC50 was determined as 2.6 µM with HCT-116; 4 µM in the data set with CAPAN-1; 3.4 µM in the data set on DU-145; 0.13 µM in the data set with MV4-11 [2]; 10.1 µM with SW480; 6.5 µM with BT-474. In [3], this compound returned an IC50 of 0.8 µM.

For `CNc1cc(-c2ccc3cnn(Cc4ccc(F)cc4)c3c2)cn(C)c1=O`, the IC50 with MV4-11 [2] turned out to be 2.39 µM; in data set [3] it was 1.4 µM.

For `CNc1cc(-c2ccc3cnn(Cc4ccc(OC)cc4)c3c2)cn(C)c1=O`, the IC50 turned out to be 2.7 µM in the data set with MV4-11 [2] and 1.6 µM in data set [3].

As to `CNc1cc(-c2ccc3cnn(Cc4ccc(F)c(F)c4)c3c2)cn(C)c1=O`, the IC50 in the data set with HCT-116 stood at 3 µM; in the data set with CAPAN-1, 3.7 µM; in the data set on DU-145, 4.8 µM; in the data set with MV4-11 [2], 0.32 µM; with SW480 it was 8.4 µM; in the data set on BT-474, 8.8 µM. Further, it took 0.86 µM to reach half-maximal inhibition in data set [3] (IC50). Further, the inhibition result in data set [4] was “Dose-dependent effect”. Moreover, the figures for the Activity entry with MV4-11 [5] and with L02 were “Dose-dependent effect” and “Non-Toxic”, respectively.

For `CNc1cc(-c2ccc3cnn(CC4CC4)c3c2)cn(C)c1=O`, the values for the IC50 (in the data set with MV4-11 [2]; in data set [3]) were 3.45 µM and 1.96 µM, respectively.

Turning to `Cc1sc2c(c1C)C(c1ccc(Cl)cc1)=N[C@@H](CC(=O)OC(C)(C)C)c1nnc(C)n1-2`, the IC50 in the data set on HCT-116 is 0.4 µM; in the data set with CAPAN-1, 0.8 µM; with DU-145, 0.2 µM; with MV4-11 [2] it was 0.06 to 0.09 µM; in the data set with SW480, 14.1 µM; in the data set with BT-474 it was 1.7 µM.

Consider `CCOC(=O)Cn1ncc2ccc(-c3cc(NC)c(=O)n(C)c3)cc21`, for which the IC50 in the data set with MV4-11 [2] was 8.77 µM; in [3], 1.9 µM.

With `CCNc1cc(-c2ccc3cnn(Cc4cc(OC)cc(OC)c4)c3c2)cn(C)c1=O`, the IC50 with MV4-11 [2] came to 2.59 µM; in [3], 1.81 µM.

For the compound `COc1ccc(C)c(C2CN(Cc3ccc(F)cc3)c3nc(-c4c(C)noc4C)ncc32)c1` (centres undefined), in [1], the inhibition is below 20%.

Regarding `CNc1cc(-c2ccc3cnn(Cc4cc(OC)cc(OC)c4)c3c2)cn(C)c1=O`, the IC50 in the data set with HCT-116 was 2.9 µM; in the data set on CAPAN-1, 3.8 µM; in the data set with DU-145 it was 2.6 µM; with MV4-11 [2], 0.19 to 0.2 µM; in the data set with SW480, 7.4 µM; in the data set with BT-474 it was 8.6 µM. The compound also displayed an IC50 in [3] of 0.55 µM.

`COc1ccc(CN2CC(c3ccc(O)cc3)c3cnc(-c4c(C)noc4C)nc32)cc1` (centres undefined) displayed an inhibition in data set [1] below 20%.

For `Cc1noc(C)c1-c1ccc2c(c1)c(Nc1ccc(F)cc1)nn2C1CCCCO1` (centres undefined), in data set [1], the inhibition was below 20%.

Consider `COc1cc(F)ccc1Nc1nn(C2CCCCO2)c2cc(-c3c(C)noc3C)ccc12` (centres undefined), for which the inhibition in data set [1] is below 20%. Moreover, in the data set on MV4-11 [2], the IC50 is 8.5 µM.

In [1], `Cc1ccc(Cn2nc(Nc3ccc(F)cc3)c3ccc(-c4c(C)noc4C)cc32)cc1` registered an inhibition below 20%.

For the compound `CNc1cc(-c2ccc3cnn(Cc4ccc(OC)c(F)c4)c3c2)cn(C)c1=O`, the IC50 in the data set with MV4-11 [2] was 4.98 µM; in [3], 1.4 µM.

`Cc1ccc(Cn2nc(Nc3ccc(C#N)cc3)c3ccc(-c4c(C)noc4C)cc32)cc1` came in with an inhibition in data set [1] below 20%. Also, the IC50 in the data set on MV4-11 [2] came out at 5.8 µM.

In data set [1], `Cc1noc(C)c1-c1ccc2c(Nc3ccc(F)cc3)n[nH]c2c1` registered an inhibition below 20%. Also, in the data set with MV4-11 [2], the IC50 was determined as 7.8 µM.

Compound `COc1ccc(Cn2nc(Nc3ccc(F)cc3)c3ccc(-c4c(C)noc4C)cc32)cc1` gave an inhibition in [1] below 20%. In addition, the IC50 in the data set with MV4-11 [2] was found to be 9.1 µM.

In data set [1], `Cc1noc(C)c1-c1ccc(-n2ncc3ccc(-c4c(C)noc4C)cc32)c(Cl)c1` registered an inhibition of 33%. The IC50 in the data set on MV4-11 [2] is 2.8 µM.

As to `Cc1noc(C)c1-c1ccc2c(Nc3ccc(F)cc3)nn(C3CCCCO3)c2c1` (centres undefined), the inhibition in [1] was below 20%. Moreover, the half-maximal inhibitory concentration (IC50) in the data set with MV4-11 [2] was 9.9 µM.

`CNc1cc(-c2ccc3cnn(Cc4ccc(C)cc4)c3c2)cn(C)c1=O`: the IC50 in the data set with MV4-11 [2] was 3.28 µM; in [3], 1.6 µM.

Take `CNc1cc(-c2ccc3cnn(CC4CCCCC4)c3c2)cn(C)c1=O`: the IC50 in the data set with MV4-11 [2] is 2.69 µM; in data set [3], 1.81 µM.

In [1], `Cc1ccc(Cn2nc(Nc3ccc(C(F)(F)F)cc3)c3ccc(-c4c(C)noc4C)cc32)cc1` yielded an inhibition below 20%.

On to `COc1ccc(Cn2nc(Nc3cccc(C(C)C)c3)c3ccc(-c4c(C)noc4C)cc32)cc1`, for which the inhibition in data set [1] was below 20%. Besides, the IC50 with MV4-11 [2] was found to be 8.1 µM.

With `CNc1cc(-c2ccc3cnn(Cc4ccc(C(F)(F)F)cc4)c3c2)cn(C)c1=O`, the IC50 in the data set on MV4-11 [2] worked out at 4.37 µM; in [3], 2.4 µM.

For `COc1cc(F)ccc1Nc1nn(C2CCCCO2)c2ccc(-c3c(C)noc3C)cc12` (centres undefined), the inhibition in [1] is below 20%. Further, the IC50 with MV4-11 [2] is 17.5 µM.

As to `CCNc1cc(-c2ccc3cnn(Cc4ccc(F)cc4)c3c2)cn(C)c1=O`, the IC50 with MV4-11 [2] stood at 5.65 µM; in data set [3], 2.25 µM.

In data set [1], `COc1cc(Nc2nn(C3CCCCO3)c3cc(-c4c(C)noc4C)ccc23)ccc1F` (centres undefined) showed an inhibition below 20%. Further, the IC50 in the data set with MV4-11 [2] is 9.3 µM.

The compound `COc1ccc(Nc2nn(Cc3ccc(C)cc3)c3cc(-c4c(C)noc4C)ccc23)cc1` displayed an inhibition in [1] below 20%. In the data set on MV4-11 [2], the IC50 was 11.9 µM.

`Cc1noc(C)c1-c1ccc2c(Nc3ccc(Cl)cc3)nn(C3CCCCO3)c2c1` (centres undefined) returned an inhibition in data set [1] below 20%. Also, the IC50 in the data set on MV4-11 [2] is 7.4 µM.
